Experimental data as given in patent US12059407B2, “Compositions and methods for delivery of macromolecules” (The Regents of the University of California, priority 2017, dated 2024).

How the values were obtained:
HEK293T cells [1] = assay: Model study with Saporin: protein delivery; format: cell-based; conditions: HEK293T cells treated with only Saporin or only compound 1
HEK293T cells [2] = assay: Cytotoxicity assay in HEK293T cells; format: cell-based

Substance | cell death, single agent only (HEK293T cells [1]) | CC50 (HEK293T cells [2]) [µM]
Saporin | no cell death | –
Triton X | – | 59
